Experimental data reported in PMC9848300, “Discovery of novel enasidenib analogues targeting inhibition of mutant isocitrate dehydrogenase 2 as antileukaemic agents” (Journal of Enzyme Inhibition and Medicinal Chemistry, 2023).
Where two headings read alike, the source gives them in different places.

How the values were obtained:
[1] = system: ACHN; assay: NCI 60 antitumor screening (single dose / five doses); assay type: cell-based; settings: Homo sapiens, read-out: Growth inhibition percentage (GI %)
[2] = system: RPMI-8226; assay: as above; assay type: cell-based; settings: Homo sapiens
[3] = system: SN 12C; assay: as above; assay type: cell-based; settings: Homo sapiens, SN12C, read-out: Growth inhibition percentage (GI %)
[4] = system: SF-539; assay: as above; assay type: cell-based; settings: Homo sapiens
[5] = system: 60 human subpanel cancer cell lines; assay: NCI 60 antitumor screening, mean over the panel (single dose); assay type: cell-based; settings: mean over 60 cancer cell lines, single dose 10 μM
Experimental: (§1) Initially, the anticancer effects of target compounds have been assessed at a single (10 μM) dose. The obtained data have been reported as mean-graph of the percent growth (G%) of the treated cancer cells. Percentage growth inhibition (GI%) is calculated (100 − G%) and pronounced in Table 1. […] Target compounds in series (III) with manipulated linkers disclosed lower potency. Superiorly, eight s-triazine derivatives from the three series (6a, 6c, 6d, 7a, 7g, 7i, 7l, and 8b) have shown potent broad-spectrum anticancer activity against most the examined cell lines, whereas most of the remaining triazine derivatives, 20 derivatives, have exerted selective anti-proliferative actions towards certain cancer cell lines (Supplementary).
(§2) The antitumor screening was performed for 60 human cancer cell lines under the protocol of NCI (www.dtp.nci.nih.gov), the Drug Evaluation Branch, Bethesda, MD. All submitted compounds were nominated based on the degree of structural diversity and computer modelling techniques for evaluation of their anticancer activity. The screening process for antineoplastic activity passes through two successive levels, starting with the assessment of target compounds at a single dose of 10 μM against 60 cancer cell lines on nine types of human tumours. These experiments were done on a triplicate following. The output from the single‐dose screening was covered as a mean graph, and then, analysed by the COMPARE program. Finally, the compounds which disclosed subpanel cancer cell growth (G %) equal to or less than 10% in at least eight cancer cell lines get to pass the assessment against the 60 cell lines at five doses (0.01–100 μM). By using GraphPad Prism version 9.0 (Graphpad Software Inc., La Jolla, CA), GI50, TGI, as well as LC50 dose‐response parameters were computed and presented for each compound (Supplementary information)[55–57].

[6] = system: HT29; assay: NCI 60 antitumor screening (single dose / five doses); assay type: cell-based, human; settings: Homo sapiens
[7] = system: MOLT-4; assay: as above; assay type: cell-based; settings: Homo sapiens
[8] = system: UACC-257; assay: as above; assay type: cell-based; settings: Homo sapiens
[9] = system: NCI/ADR-RES; assay: as above; assay type: cell-based; settings: Homo sapiens, read-out: Growth inhibition percentage (GI %)
[10] = system: SR; assay: as above; assay type: cell-based; settings: Homo sapiens, read-out: Growth inhibition percentage (GI %)
[11] = system: MDA-MB-231/ATCC; assay: as above; assay type: cell-based; settings: Homo sapiens
[12] = system: LOX IMVI; assay: as above; assay type: cell-based; settings: Homo sapiens, read-out: Growth inhibition percentage (GI %)
[13] = system: 786-0; assay: as above; assay type: cell-based; settings: Homo sapiens
[14] = system: SNB-75; assay: as above; assay type: cell-based; settings: Homo sapiens
[15] = system: HOP-92; assay: as above; assay type: cell-based; settings: Homo sapiens
[16] = system: MALME-3M; assay: as above; assay type: cell-based; settings: Homo sapiens, read-out: Growth inhibition percentage (GI %)
[17] = system: HL-60(TB); assay: as above; assay type: cell-based; settings: Homo sapiens
[18] = system: T-47D; assay: as above; assay type: cell-based; settings: Homo sapiens, T47D, read-out: Growth inhibition percentage (GI %)
[19] = system: CCRF-CEM; assay: as above; assay type: cell-based; settings: Homo sapiens, read-out: Growth inhibition percentage (GI %)
[20] = system: UO-31; assay: as above; assay type: cell-based; settings: Homo sapiens; UO-31 (renal cancer), single dose 10 μM; read-out: Growth inhibition percentage (GI %)
[21] = system: MDA-MB-435; assay: as above; assay type: cell-based; settings: Homo sapiens
[22] = system: UACC-62; assay: as above; assay type: cell-based; settings: Homo sapiens
[23] = system: K-562; assay: as above; assay type: cell-based; settings: Homo sapiens
[24] = system: HCT-15; assay: as above; assay type: cell-based; settings: Homo sapiens
[25] = system: HCT-116; assay: as above; assay type: cell-based; settings: Homo sapiens
[26] = system: M14; assay: NCI 60 antitumor screening (single dose); assay type: cell-based; settings: Homo sapiens; M14 (melanoma), single dose 10 μM; read-out: Growth inhibition percentage (GI %)
Experimental: as §1, §2

[27] = system: TK-10; assay: NCI 60 antitumor screening (single dose); assay type: cell-based; settings: Homo sapiens; TK-10 (renal cancer), single dose 10 μM; read-out: Growth inhibition percentage (GI %)
Experimental: as §1, §2

[28] = system: HS 578T; assay: NCI 60 antitumor screening (single dose); assay type: cell-based; settings: Homo sapiens; HS 578T (breast cancer), single dose 10 μM; read-out: Growth inhibition percentage (GI %)
Experimental: as §1, §2

[29] = system: BT-549; assay: NCI 60 antitumor screening (single dose / five doses); assay type: cell-based; settings: Homo sapiens
[30] = ACHN (renal cancer), single dose 10 μM
[31] = RPMI-8226 (leukaemia), single dose 10 μM, read-out: Growth inhibition percentage (GI %)
[32] = SN 12C (renal cancer), single dose 10 μM
[33] = SF-539 (CNS cancer), single dose 10 μM, read-out: Growth inhibition percentage (GI %)
[34] = HT-29, HT29 (colon cancer), single dose 10 μM, read-out: Growth inhibition percentage (GI %)
[35] = MOLT-4 (leukaemia), single dose 10 μM, read-out: Growth inhibition percentage (GI %)
[36] = UACC-257 (melanoma), single dose 10 μM, read-out: Growth inhibition percentage (GI %)
[37] = NCI/ADR-RES (ovarian cancer), single dose 10 μM
[38] = SR (leukaemia), single dose 10 μM
[39] = MDA-MB-231/ATCC (breast cancer), single dose 10 μM, read-out: Growth inhibition percentage (GI %)
[40] = LOX IMVI (melanoma), single dose 10 μM
[41] = 786-0, 786-0 (renal cancer), single dose 10 μM, read-out: Growth inhibition percentage (GI %)
[42] = SNB-75 (CNS cancer), single dose 10 μM, read-out: Growth inhibition percentage (GI %)
[43] = HOP-92 (non-small cell lung cancer), single dose 10 μM, read-out: Growth inhibition percentage (GI %)
[44] = MALME-3M (melanoma), single dose 10 μM
[45] = HL-60(TB) (leukaemia), single dose 10 μM, read-out: Growth inhibition percentage (GI %)
[46] = T-47D (breast cancer), single dose 10 μM
[47] = CCRF-CEM (leukaemia), single dose 10 μM
[48] = MDA-MB-435 (melanoma), single dose 10 μM, read-out: Growth inhibition percentage (GI %)
[49] = UACC-62 (melanoma), single dose 10 μM, read-out: Growth inhibition percentage (GI %)
[50] = K562, K-562 (leukaemia), single dose 10 μM, read-out: Growth inhibition percentage (GI %)
[51] = HCT-15 (colon cancer), single dose 10 μM, read-out: Growth inhibition percentage (GI %)
[52] = HCT-116 (colon cancer), single dose 10 μM, read-out: Growth inhibition percentage (GI %)

Oc1ccccc1/C=N/Nc1nc(N/N=C/c2ccccc2O)nc(N2CCCCC2)n1 [compound 7a, 2-[(1e)-(2-{4-[(E)-2-[(2-Hydroxyphenyl)methylidene]hydrazin-1-yl]-6-(piperidin-1-yl)-1,3,5-triazin-2-yl}hydrazin-1-ylidene)methyl] phenol]
inhibition at 10 µM [1, 30]: 63.1% | inhibition at 10 µM [2, 31]: 57.4% | inhibition at 10 µM [3, 32]: 40.5% | inhibition at 10 µM [4, 33]: 40.6% | Mean GI % [5]: 45.09% | inhibition at 10 µM [6, 34]: 54.7% | inhibition at 10 µM [7, 35]: 59.1% | inhibition at 10 µM [8, 36]: 20.9% | inhibition at 10 µM [9, 37]: 81% | inhibition at 10 µM [10, 38]: 60.2% | inhibition at 10 µM [11, 39]: 34.5% | inhibition at 10 µM [12, 40]: 60.3% | inhibition at 10 µM [13, 41]: 26.8% | inhibition at 10 µM [14, 42]: 25.6% | inhibition at 10 µM [15, 43]: 21.6% | inhibition at 10 µM [16, 44]: 33.1% | inhibition at 10 µM [17, 45]: 52.6% | inhibition at 10 µM [18, 46]: 51.8% | inhibition at 10 µM [19, 47]: 78.3% | inhibition at 10 µM [20]: 51.7% | inhibition at 10 µM [21, 48]: 30.9% | inhibition at 10 µM [22, 49]: 29.7% | inhibition at 10 µM [23, 50]: 61.8% | inhibition at 10 µM [24, 51]: 22.6% | inhibition at 10 µM [25, 52]: 22% | inhibition at 10 µM [26]: 53.6% | inhibition at 10 µM [27]: 2.29% | inhibition at 10 µM [28]: 23.4%

C/C(=N\Nc1nc(N/N=C(\C)c2ccc([N+](=O)[O-])cc2)nc(N2CCOCC2)n1)c1ccc([N+](=O)[O-])cc1 [compound 8a, 2-(Morpholin-4-yl)-4,6-bis[(E)-2-[1–(4-nitrophenyl)ethylidene]hydrazin-1-yl]-1,3,5-triazine]
inhibition at 10 µM ([1]; ACHN): 22.1% | inhibition at 10 µM ([2]; RPMI-8226, read-out: Growth inhibition percentage (GI %)): 35.3% | inhibition at 10 µM [3]: -27.4% | inhibition at 10 µM ([4]; SF-539, read-out: Growth inhibition percentage (GI %)): 84.5% | Mean GI % [5]: 23.27% | inhibition at 10 µM ([6]; HT-29, read-out: Growth inhibition percentage (GI %)): 19.4% | inhibition at 10 µM ([7]; MOLT-4, read-out: Growth inhibition percentage (GI %)): 21.1% | inhibition at 10 µM ([8]; UACC-257, read-out: Growth inhibition percentage (GI %)): 0.81% | inhibition at 10 µM ([9]; NCI/ADR-RES): 31.3% | inhibition at 10 µM ([10]; SR): -13.1% | inhibition at 10 µM ([11]; MDA-MB-231, read-out: Growth inhibition percentage (GI %)): 56.5% | inhibition at 10 µM ([12]; LOX IMVI): 61.1% | inhibition at 10 µM ([13]; 786-0, read-out: Growth inhibition percentage (GI %)): 33.1% | inhibition at 10 µM ([14]; SNB-75, read-out: Growth inhibition percentage (GI %)): 19.4% | inhibition at 10 µM ([15]; HOP-92, read-out: Growth inhibition percentage (GI %)): 35.9% | inhibition at 10 µM ([16]; Malme-3M): 30.6% | inhibition at 10 µM ([17]; HL-60, read-out: Growth inhibition percentage (GI %)): 7.4% | inhibition at 10 µM [18]: 45.1% | inhibition at 10 µM ([19]; CCRF-CEM): 38.4% | inhibition at 10 µM ([21]; MDA-MB-435, read-out: Growth inhibition percentage (GI %)): 15% | inhibition at 10 µM ([22]; UACC-62, read-out: Growth inhibition percentage (GI %)): 14.7% | inhibition at 10 µM ([23]; K562, read-out: Growth inhibition percentage (GI %)): 20.3% | inhibition at 10 µM ([24]; HCT-15, read-out: Growth inhibition percentage (GI %)): 33.9% | inhibition at 10 µM ([29]; BT-549, read-out: Growth inhibition percentage (GI %)): 32.7% | inhibition at 10 µM ([25]; HCT-116, read-out: Growth inhibition percentage (GI %)): 29.4% | inhibition at 10 µM [26]: 25.5% | inhibition at 10 µM [27]: 19.2% | inhibition at 10 µM [28]: 21.3%

O=C(NNc1nc(NNC(=O)c2ccccc2)nc(N2CCOCC2)n1)c1ccccc1 [compound 8d, N'-[4-(morpholin-4-yl)-6-(phenylhydrazido)-1,3,5-triazin-2-yl]benzohydrazide]
inhibition at 10 µM [1, 30]: -4.4% | inhibition at 10 µM [2, 31]: -9.42% | inhibition at 10 µM [3, 32]: -6.53% | inhibition at 10 µM [4, 33]: 2.56% | inhibition at 10 µM [6, 34]: -12% | inhibition at 10 µM [7, 35]: -8.9% | inhibition at 10 µM [8, 36]: 1.13% | inhibition at 10 µM [9, 37]: 1.24% | inhibition at 10 µM [10, 38]: 2.07% | inhibition at 10 µM [11, 39]: -3.73% | inhibition at 10 µM [12, 40]: 2.21% | inhibition at 10 µM [13, 41]: -3.15% | inhibition at 10 µM [14, 42]: 9.11% | inhibition at 10 µM [15, 43]: -12.8% | inhibition at 10 µM [16, 44]: -7.11% | inhibition at 10 µM [17, 45]: -15.3% | inhibition at 10 µM [18, 46]: -10.8% | inhibition at 10 µM [19, 47]: -6.05% | inhibition at 10 µM [20]: 13.3% | inhibition at 10 µM [21, 48]: -2.63% | inhibition at 10 µM [22, 49]: 4.98% | inhibition at 10 µM [23, 50]: -6.16% | inhibition at 10 µM [24, 51]: -2.67% | inhibition at 10 µM ([29]; BT-549 (breast cancer), single dose 10 μM, read-out: Growth inhibition percentage (GI %)): -9.45% | inhibition at 10 µM [25, 52]: -3.34% | inhibition at 10 µM [26]: -0.8% | inhibition at 10 µM [27]: -10.8% | inhibition at 10 µM [28]: -6.14%
